Measured values published in PubChem BioAssay AID2305 (GlaxoSmithKline (GSK), 2010).

System: P. falciparum 3D7 growth, pLDH absorbance
Experiment: blood-stage malaria parasite growth potency – strain 3D7, dose response (AID 2305)

SMILES | IC50
COc1cccc(CCc2nc3c(N4CCC(Cc5ccccc5)CC4)cccc3n2CC2CNCCO2)c1 (centres undefined) | 800 nM
CCCCCCCCc1[nH]c(C)c(Br)c(=O)c1Br | 180 nM
NCC(=O)c1cc2c(cc1N)OCCO2 | 1360 nM
Cc1cccc2[nH]c(-c3cccc(-c4ccc(NC(=O)C(C)CN5CCOCC5)cc4)c3)nc12 (centres undefined) | 690 nM
CC(=O)c1cccc(NC(=O)c2ccc(Cl)c(S(=O)(=O)N3CCc4ccccc43)c2)c1 | 1640 nM
O=C(/C=C/c1ccc(F)cc1)NC1CCC(CCN2CCc3ccc(-n4cccn4)cc3CC2)CC1 (centres undefined) | 1440 nM
c1cc(CNCCN2CCNCC2)cc(-c2cccc(-c3nc4ccccc4[nH]3)c2)c1 | 960 nM
Cc1cccc2[nH]c(-c3ccc(-c4cccc(CN5CCCC5CN)c4)cc3)nc12 (centres undefined) | 910 nM
COc1ccccc1-c1cc(C(=O)N2CCN(S(=O)(=O)c3ccc(C)cc3)CC2)[nH]n1 | 1160 nM
CC(C)CCN1CCC(Oc2ccc(NC(=O)c3cccs3)cc2Cl)CC1 | 340 nM
CC(C)CNCc1ccc(-c2ccccc2CN(C(=O)NCCc2ccccc2)C2CCN(Cc3ccccc3)CC2)cc1 | 880 nM
O=C(Nc1ccc(Cl)cc1)c1cc(Cl)ccc1NC(=O)C1CCc2ccccc2O1 (centres undefined) | 1790 nM
Clc1ccccc1C=NNc1ccnc2ccccc12 | 850 nM
COc1cc2nc(NCCc3ccccc3)nc(N(C)Cc3ccccc3)c2cc1OC | 830 nM
CC(C)c1ccc(NS(=O)(=O)c2cccc(C(=O)NC3CCN(CC4CCCCC4)CC3)c2)cc1 | 1300 nM
NC1CCN(c2nc(NCCCc3ccc(O)cc3)nc(NCc3ccccc3-c3ccccc3)n2)CC1 | 680 nM
CC(=O)C1(c2ccccc2)CCN(CCC2(c3ccc(Cl)c(Cl)c3)CN(C(=O)c3cccc(Cl)c3)CCO2)CC1 (centres undefined) | 850 nM
O=C(Nc1ccc(Cl)c(Cl)c1)N1CCC(NCc2cccc([N+](=O)[O-])c2)CC1 | 760 nM
CN(c1ccc(NC(=O)Nc2cccc(Cl)c2)cc1)c1ccnc(N)n1 | 630 nM
Nc1c2c(nc3ccc(NC(=O)CCCCCc4ccccc4)cc13)CCCC2 | 440 nM
CC(=O)Nc1nc(C(=O)Nc2cccc(-c3ccc(-c4nc5c(C)cccc5[nH]4)s3)c2)cs1 | 220 nM
Cc1cccc(Cn2c(C(N)=O)nn(-c3ccc([N+](=O)[O-])cc3C#N)c2=S)c1 | 730 nM
NC(=O)c1cccc(Nc2nccc(Nc3ccc4[nH]c(-c5ccccc5)cc4c3)n2)c1 | 780 nM
O=C(NCCCN1CCN(c2cccc(Cl)c2)CC1)c1ccc(-c2nc3cc(Cl)c(Cl)cc3[nH]2)c(F)c1 | 830 nM
NC(=O)c1ccccc1OCC(=O)Nc1cccc(-c2cccc(-c3nc4ccccc4[nH]3)c2)c1 | 380 nM

SMILES | IC50
O=C(C=Cc1ccccc1O)N1CCC(CN2CCC(c3c[nH]c4ccccc34)CC2)CC1 | 960 nM
CCc1c[nH]c2c(N3CCCS3(=O)=O)cc(C(=O)N[C@@H](Cc3ccccc3)[C@H](O)CNC3CCCCC3)cc12 | 770 nM
CC(=O)Nc1ccc(C(=O)NC2CCN(c3ccnc4cc(Cl)ccc34)C2)cc1 (centres undefined) | 810 nM
CC(C)COc1ccc(Cl)cc1Cc1ccc(-c2nc3ccc(CCN4CCCC4)cc3[nH]2)o1 | 730 nM
O=S(=O)(NCCN1CCCC1)c1ccc(-c2ccc(CNCc3ccccc3)cc2)cc1 | 780 nM
O=[N+]([O-])c1cc(/C=N/Nc2nc3ccccc3[nH]2)ccc1O | 950 nM
COc1ccc(-c2cccc(NC(=O)c3cccc(C#N)c3)c2)cc1CNC(C)C | 690 nM
CCCCCC(C)N=C(Nc1ccc([N+](=O)[O-])cc1O)Nc1ccccc1Br (centres undefined) | 620 nM
CCOC(=O)c1ccc(OCCOc2ccccc2)cc1 | 370 nM
COc1ccc(-c2ccc(NC(=O)c3cccc(Cl)c3)cc2)cc1CN(C)CCO | 710 nM
CC[C@H](C)CNC(=O)c1cncc(-c2cccc(CN(C)C3CCN(C)CC3)c2)c1 | 780 nM
Cc1ccc2c(NN=Cc3cccc(F)c3)cc(C)nc2c1 | 860 nM
Nc1nc(N)c2c(Oc3cccnc3)cccc2n1 | 890 nM
CCNc1cc(C(=O)N[C@@H](Cc2ccccc2)[C@H](O)CNC(C)Cc2cccc(Cl)c2)cc(N2CCCCS2(=O)=O)c1 (some centres undefined) | 500 nM
CCCN(CCC)CCCNc1ccc(C(=O)Nc2ccc(C)c(F)c2)cc1[N+](=O)[O-] | 540 nM
COc1ccc2nc3cc(Cl)ccc3c(NCCO)c2c1 | 800 nM
CC(C)(C)CCOC(=O)N1CCc2c(cc(O)c(O)c2Cl)C(c2ccc(O)cc2)C1 (centres undefined) | 750 nM
CC(C)(C)c1ccc(NC(=O)c2cccc(CN3CCCN(Cc4ccsc4)CC3)c2)cc1 | 760 nM
Cc1[nH]c2c(NCc3ccc(F)cc3)nccc2c1C | 1360 nM
CC(=NN=C(N)N)c1ccc2c(ccc3ccccc32)c1 | 830 nM
C=CCOC(=O)N1CCC(CNCc2cccc(-c3ccc(-c4nc5c(C)cccc5[nH]4)cc3)c2)C1 (centres undefined) | 250 nM
OC(CNc1ccnc(Nc2ccc(Cl)cc2)n1)c1ccccc1C(F)(F)F (centres undefined) | 790 nM
O=C(Nc1ccc(Cl)c(C(F)(F)F)c1)NC1CCN(CCCCCNC(=O)[C@@H]2C[C@H]2c2ccc(Cl)c(Cl)c2)CC1 | 680 nM
N#Cc1ccc(-c2ccc(C(=O)Nc3ccc4c(c3)CCN(C3CCC3)CC4)nc2)cn1 | 1160 nM
COc1ccc2nccc(N3CCCN(CCNS(=O)(=O)c4ccc5c(c4)NC(=O)CS5)CC3)c2n1 | 820 nM

SMILES | IC50
NC(=O)c1ccc(C(=O)Nc2cccc(-c3cccc(-c4nc5ccc(C(F)(F)F)cc5[nH]4)c3)c2)cc1 | 230 nM
CCN(CCCN1CCCCC1)c1cc(C)nc(Nc2ccc(C)c(C)c2)n1 | 1020 nM
Cc1cc(F)ccc1Nc1nc(N(C)c2ccccc2)c2cc(OCCN(C)C)ccc2n1 | 790 nM
O=C(NCCN1CCN(S(=O)(=O)c2ccc(OC3CCNCC3)c(Br)c2)CC1)c1ccc(Cl)c(Cl)c1 | 890 nM
Cc1nn(CC(O)Cn2c3ccc(Br)cc3c3cc(Br)ccc32)c(C)c1Br (centres undefined) | 710 nM
COc1ccc(-c2ccc(CNC(=O)c3ccc(Cl)cc3)c(F)c2)cc1CN1CCCN(C)CC1 | 710 nM
COc1ccc2nccc([C@@H](O)CN3CCC(NCc4ccc5cccc(O)c5n4)CC3)c2c1 | 1130 nM
CNC(=O)c1ccc2nc(C3CC3)n(CC3CCN(S(=O)(=O)c4cccc(Cl)c4)CC3)c2c1 | 650 nM
CC(=O)c1nccc(C)c1N | 930 nM
CCCCCCCCNCC(O)c1cc(-c2ccc(Cl)cc2)nc2cc(C)ccc12 (centres undefined) | 80 nM
Cc1cccc(-c2nc(Nc3ccncc3)c3cc(N(C)C)ccc3n2)n1 | 710 nM
O=C(Nc1cccc(-c2ccc(-c3nc4ccc(F)cc4[nH]3)cc2)c1)Nc1ccc(F)c(F)c1F | 110 nM
COc1cccc(NC(=O)c2nc(N3CCN(c4ccncc4)CC3)ccc2Cl)c1 | 920 nM
N#Cc1ccc2c(c1)CN(C1CCC(NC(=O)/C=C/c3cc(C(F)(F)F)cc(C(F)(F)F)c3)CC1)CCC2 (centres undefined) | 1390 nM
CCC(CC)(Cc1ccccc1)NC(=O)[C@H](Cc1ccc(OC)c(OC)c1)Nc1ccc(C#N)c2ccccc12 | 870 nM
Cc1c(CNCCCNc2cc(=O)c3ccccc3[nH]2)sc(-c2ccco2)c1Br | 1020 nM
CN1CCN(Cc2ccc(-c3ccc4c(Nc5ccc(F)cc5Cl)ccnc4c3)o2)CC1 | 140 nM
c1cc(CNCCN2CCNCC2)cc(-c2ccc(-c3nc4ccccc4[nH]3)cc2)c1 | 1080 nM
COCC(=O)N(Cc1cccc(-c2ccc(CNCCc3ccccc3)cc2)c1)C1CCN(Cc2ccccc2)CC1 | 1100 nM
CC(Cc1ccc(OCCN2CCN(c3cccc(Cl)c3)CC2)cc1)NCC(O)c1cccc(C(F)(F)F)c1 (centres undefined) | 600 nM
CCOc1cc(C(=O)Nc2ccc3nc(N4CCCCC4)cc(C)c3c2)cc(OCC)c1OCC | 820 nM
C=C[C@]1(C)C[C@@H](OC(=O)CS[C@H]2CN3CC[C@H]2C3)[C@@]2(C)C3C(=O)CC[C@@]3(CC[C@H]2C)[C@@H](C)[C@@H]1O (some centres undefined) | 690 nM
CCCc1cc(Cc2cnc(N)nc2N)cc(CCC)c1OCCCCC(=O)OC | 40 nM
CC(CN1CCN(C)CC1)C(=O)Nc1ccc(-c2ccc(-c3nc4ccccc4[nH]3)s2)cc1 (centres undefined) | 640 nM
COc1cc(NC(=O)N2CCc3ccc(OCCN4CCCCC4)cc32)cc(C(F)(F)F)c1 | 270 nM

SMILES | IC50
Cc1noc(C)c1-c1cccc(CNCc2cccc(-c3csc(-c4nc5ccccc5[nH]4)c3)c2)c1 | 260 nM
CCn1c(Sc2ccc(C#N)c([N+](=O)[O-])c2)nnc1-c1ccc(OC)cc1 | 810 nM
COc1cc(NCCCCNc2ccc(Cl)c(Cl)c2)nc2ccccc12 | 530 nM
COc1ccc(CNCc2ccccc2)cc1-c1ccc(S(=O)(=O)NCCN2CCCC2)s1 | 670 nM
O=C(Nc1ccc(C(F)(F)F)cc1)c1ccc(S(=O)(=O)NC2CCN(Cc3ccccc3)C2)cc1 (centres undefined) | 620 nM
CC(C)NC(=O)Cn1cc(C2CCN(CC3CCN(C(=O)/C=C/c4ccc(Cl)c(Cl)c4)CC3)CC2)c2ccccc21 | 1030 nM
COc1ccc(-n2cc(C(=O)c3cc(Br)ccc3O)cc(C#N)c2=O)cc1Cl | 790 nM
CCCCCCNC(=O)c1nn(CCN2CCC(N3CCCC3)CC2)cc1-c1ccc(Cl)c(Cl)c1 | 730 nM
COc1cc2nc(N3CCC(CNC(=O)c4ccc(-c5ccc(C(=O)N(C)C)cc5)c(OCCO)c4)CC3)nc(N)c2cc1OC | 730 nM
CC(=O)c1cccc(NC(=O)NC2CCN(c3ccnc(Nc4ccc(F)cc4)n3)C2)c1 (centres undefined) | 650 nM
CCOC(=O)C(CO)NC(=O)c1ccc([N+](=O)[O-])o1 (centres undefined) | 290 nM
c1ccn2c(Sc3ncnc4sccc34)ncc2c1 | 660 nM
CC(C)C(=O)NC(c1ccc(N(C)C)cc1)c1cc(Cl)c2cccnc2c1O (centres undefined) | 860 nM
Brc1ccc(Nc2ccnc3cc(-c4nccs4)ccc23)cc1Oc1ccnc2cc(-c3nccs3)ccc12 | 1060 nM
Cc1cc(OCCCn2ccnc2)ccc1-c1csc(NC(N)=NCc2ccccc2)n1 | 880 nM
COc1cccc(C(=O)[C@H]2C[C@@H]2CN(C)CCC(O)c2ccc(Cl)c(Cl)c2)c1 (some centres undefined) | 760 nM
CC1(C)CCCC(=Cc2ccc(Br)cc2)C1(O)Cn1ccnc1 (centres undefined) | 790 nM
CS(=O)(=O)N1CC2(CCN(CCC(NC(=S)Nc3ccccc3)c3ccc(Cl)c(Cl)c3)CC2)c2ccccc21 (centres undefined) | 830 nM
CCCCOC(=O)C1=C(C)NC2=C(C(=O)CC(c3ccc(OC)c(OC)c3)C2)C1c1ccc(O)cc1 (centres undefined) | 830 nM
C=C(NC(=O)c1cc(C)cc(C)c1)C(=O)OC | 170 nM
COc1cc2nc(N(C)Cc3cccc(I)c3)nc(N)c2cc1OC | 860 nM
Cc1[nH]c(C)c(-c2ccc(C(=O)c3ccc(Cl)cc3)cc2)c(=O)c1Br | 810 nM
CNCC(O)c1cc(Cl)c(Cl)cc1C (centres undefined) | 920 nM
CC(C)(C)c1ccc(C(=O)N2CCC3(CC2)C(=O)N(CC(=O)NCC2CCCO2)CN3c2ccccc2)cc1 (centres undefined) | 230 nM
